Among the data in ChEMBL document CHEMBL1201862, “PubChem BioAssay data set” (2004) are IC50, AC50 and EC50 values, retold here.

A short description of test [1]: Counterscreen for inhibitors of Trypanosoma brucei methionyl tRNA synthetase (MetRS): Luminescence-based cell-based high throughput dose response assay to identify compounds that are cytotoxic to Jurkat human T lymphocyte cells. It is filed as functional.
In test [2] the target is T1, Methionyl-tRNA synthetase, putative (Trypanosoma brucei brucei, UniProt Q38C91).
T1 sequence (Q38C91 whole entry): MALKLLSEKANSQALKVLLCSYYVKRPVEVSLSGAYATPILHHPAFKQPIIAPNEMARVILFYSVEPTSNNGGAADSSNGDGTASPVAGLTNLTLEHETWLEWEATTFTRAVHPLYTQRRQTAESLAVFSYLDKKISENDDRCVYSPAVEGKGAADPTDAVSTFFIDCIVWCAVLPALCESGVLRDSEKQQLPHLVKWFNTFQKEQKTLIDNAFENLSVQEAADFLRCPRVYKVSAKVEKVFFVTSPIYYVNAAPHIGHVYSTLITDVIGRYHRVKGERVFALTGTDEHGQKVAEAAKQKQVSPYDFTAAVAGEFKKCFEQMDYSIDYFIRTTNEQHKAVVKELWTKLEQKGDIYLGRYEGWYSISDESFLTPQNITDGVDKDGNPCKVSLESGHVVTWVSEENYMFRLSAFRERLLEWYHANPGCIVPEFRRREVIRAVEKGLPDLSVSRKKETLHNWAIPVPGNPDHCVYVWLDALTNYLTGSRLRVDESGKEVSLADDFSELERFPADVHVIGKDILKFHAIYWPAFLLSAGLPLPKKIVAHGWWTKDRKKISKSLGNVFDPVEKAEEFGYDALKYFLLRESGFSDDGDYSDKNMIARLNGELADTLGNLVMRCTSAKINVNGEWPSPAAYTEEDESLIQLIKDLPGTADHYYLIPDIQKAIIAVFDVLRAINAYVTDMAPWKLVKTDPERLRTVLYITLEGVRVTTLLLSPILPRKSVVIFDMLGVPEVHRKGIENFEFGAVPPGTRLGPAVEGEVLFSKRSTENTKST
Type of test: functional, Trypanosoma brucei brucei strain 927/4 GUTat10.1.

Test [3] deals with T1, Methionyl-tRNA synthetase, putative. Type of test: functional, Trypanosoma brucei brucei strain 927/4 GUTat10.1. This is another data set of the same source.
For test [4], the target named is COUP transcription factor 2 (Homo sapiens, UniProt P24468). Put plainly: Luminescence-based cell-based high throughput dose response assay to identify inhibitors of COUP-TFII (NR2F2). It is filed as functional.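 Also: HEK293 cells transiently cotransfected with COUP-TFII expression vector and reporter; luciferase reporter luminescence driven by COUP-TFII from the pX2-168 reporter plasmid.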
Test [5] is described as follows: A549 cell cytotoxicity, dose response, cytotoxicity control, plate reader, cherry-pick, antagonist series (AID 743412). Type of test: functional, cell-based.
Test [6] is described as follows: MC4R antagonists, dose response, counter-screen for LGR2 antagonist project, cell-based, plate reader, cherry pick (AID 743444).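 Also: transfected HEK 293 cells stimulated with alpha-MSH peptide; potency of inhibitors of the alpha-MSH evoked signal.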 It is filed as functional. (Counterscreens check selectivity or assay interference.)
Test [7] is described as follows: cytotoxicity in HEK-293T cells, dose response, cytotoxicity control for TCR NF-kB inhibitor project, luminescence, T-cell screen hits (AID 489026).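 Also: cells exposed to compound about 14 hours before the viability readout.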 Type of test: functional, cell-based.
The nature of test [8]: HepG2 cell cytotoxicity, dose response, cytotoxicity control, plate reader, cherry-pick, antagonist series (AID 743416). Type of test: functional, cell-based.
Test [9] is described as follows: HEK293 cell cytotoxicity, dose response, cytotoxicity control, plate reader, cherry-picked samples (AID 743446). It is filed as functional, cell-based.
Test [10] in a line: LGR2 antagonists, dose response, cell-based, HEK293, CRE-luciferase reporter, cherry pick, set 2 (AID 743343).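 Also: transfected cells were stimulated with diluted bursicon conditioned medium after compound addition.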 Type of test: functional. Background: Reporter assays use an easily measured gene product as a stand-in for the process of interest.
Test [11] deals with T2, Acyl-homoserine lactone acylase PvdQ (Pseudomonas aeruginosa (strain LESB58), UniProt Q9I194).
T2 sequence (Q9I194 whole entry): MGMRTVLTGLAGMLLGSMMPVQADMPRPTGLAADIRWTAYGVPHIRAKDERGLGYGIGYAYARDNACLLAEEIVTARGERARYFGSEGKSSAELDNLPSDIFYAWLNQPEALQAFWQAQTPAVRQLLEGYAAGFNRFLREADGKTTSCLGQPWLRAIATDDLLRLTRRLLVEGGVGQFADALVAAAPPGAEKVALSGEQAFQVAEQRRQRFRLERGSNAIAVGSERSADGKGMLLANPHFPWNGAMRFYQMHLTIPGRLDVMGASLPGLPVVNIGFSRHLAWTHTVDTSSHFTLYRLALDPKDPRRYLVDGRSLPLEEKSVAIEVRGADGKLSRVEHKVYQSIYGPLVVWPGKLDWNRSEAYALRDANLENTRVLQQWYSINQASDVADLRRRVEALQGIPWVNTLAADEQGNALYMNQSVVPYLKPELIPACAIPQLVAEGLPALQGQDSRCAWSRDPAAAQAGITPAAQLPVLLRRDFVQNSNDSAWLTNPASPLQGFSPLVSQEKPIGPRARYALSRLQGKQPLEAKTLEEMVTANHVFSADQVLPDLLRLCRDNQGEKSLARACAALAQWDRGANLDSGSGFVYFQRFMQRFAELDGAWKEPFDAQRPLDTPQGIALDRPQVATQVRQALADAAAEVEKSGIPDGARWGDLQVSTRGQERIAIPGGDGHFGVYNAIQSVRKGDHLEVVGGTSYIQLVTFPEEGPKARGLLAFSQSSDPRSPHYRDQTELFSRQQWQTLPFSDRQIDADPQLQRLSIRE
Put plainly: P. aeruginosa PvdQ acylase inhibitors, dose response, biochemical, fluorescence, plate reader and imaging, cherry-picks (AID 493231).

Test [12] has as its target T3, Probable nicotinate-nucleotide adenylyltransferase (Staphylococcus aureus (strain N315), UniProt P65502). Type of test: functional, Staphylococcus aureus subsp. aureus N315. Conditions: read-out: IC50_Mean.
Test [13] deals with HEK293. Put plainly: cells. Type of test: functional, cell-based. The note with it: Homo sapiens.
Test [14] relates to HEK293. Put plainly: cells. It is filed as functional, cell-based. Conditions: Homo sapiens. The source holds these as a separate data set.
The target of test [15] is Nucleotide-binding oligomerization domain-containing protein 2 (Homo sapiens, UniProt Q9HC29). Put plainly: NOD2 signaling inhibitors, cell-based, luminescence, uHTS, HEK293 (AID 1566). Type of test: functional.
In test [16] the test system is HEK293. Put plainly: cells. It is filed as functional, cell-based. The note with it: Homo sapiens. The source holds these as a separate data set.
For test [17], the target named is T3, Probable nicotinate-nucleotide adenylyltransferase. Type of test: functional, Staphylococcus aureus subsp. aureus N315.
The test system of test [18] is HEK293. Put plainly: NOD1 signaling inhibitors, primary screen, cell-based, luminescence, uHTS (AID 1578). Type of test: functional. The note with it: Homo sapiens.
Test [19] deals with HEK293. Put plainly: NOD2 signaling inhibitors in MDP-stimulated cells, cell-based, uHTS, luminescence (AID 2001). It is filed as functional. Conditions: Homo sapiens.
The target in test [20] is T4, Sentrin-specific protease 8 (Homo sapiens, UniProt Q96LD8).
T4 sequence (Q96LD8 whole entry): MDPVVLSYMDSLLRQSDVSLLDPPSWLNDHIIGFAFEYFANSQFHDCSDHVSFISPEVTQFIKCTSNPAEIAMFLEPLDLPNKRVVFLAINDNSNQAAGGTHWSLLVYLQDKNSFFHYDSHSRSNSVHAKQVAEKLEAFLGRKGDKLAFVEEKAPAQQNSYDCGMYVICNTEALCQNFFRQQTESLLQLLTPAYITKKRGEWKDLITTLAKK
Type of test: functional.

The target in test [21] is T4, Sentrin-specific protease 8. Type of test: functional. The source holds these as a separate data set.

Active and inactive are the calls of the source.
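For IC50 Mean in this document: confirmatory dose-response retesting of NadD inhibitor hits first found in an ultra-high-throughput screen.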

T3 sequence (P65502 whole entry): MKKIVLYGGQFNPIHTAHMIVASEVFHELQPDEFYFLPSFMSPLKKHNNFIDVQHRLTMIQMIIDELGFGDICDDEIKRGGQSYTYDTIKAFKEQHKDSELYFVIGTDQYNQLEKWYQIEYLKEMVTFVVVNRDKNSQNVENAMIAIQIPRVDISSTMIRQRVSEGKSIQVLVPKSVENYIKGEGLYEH
Nucleotide-binding oligomerization domain-containing protein 2, sequence (Q9HC29 whole entry, the tested form may be a part): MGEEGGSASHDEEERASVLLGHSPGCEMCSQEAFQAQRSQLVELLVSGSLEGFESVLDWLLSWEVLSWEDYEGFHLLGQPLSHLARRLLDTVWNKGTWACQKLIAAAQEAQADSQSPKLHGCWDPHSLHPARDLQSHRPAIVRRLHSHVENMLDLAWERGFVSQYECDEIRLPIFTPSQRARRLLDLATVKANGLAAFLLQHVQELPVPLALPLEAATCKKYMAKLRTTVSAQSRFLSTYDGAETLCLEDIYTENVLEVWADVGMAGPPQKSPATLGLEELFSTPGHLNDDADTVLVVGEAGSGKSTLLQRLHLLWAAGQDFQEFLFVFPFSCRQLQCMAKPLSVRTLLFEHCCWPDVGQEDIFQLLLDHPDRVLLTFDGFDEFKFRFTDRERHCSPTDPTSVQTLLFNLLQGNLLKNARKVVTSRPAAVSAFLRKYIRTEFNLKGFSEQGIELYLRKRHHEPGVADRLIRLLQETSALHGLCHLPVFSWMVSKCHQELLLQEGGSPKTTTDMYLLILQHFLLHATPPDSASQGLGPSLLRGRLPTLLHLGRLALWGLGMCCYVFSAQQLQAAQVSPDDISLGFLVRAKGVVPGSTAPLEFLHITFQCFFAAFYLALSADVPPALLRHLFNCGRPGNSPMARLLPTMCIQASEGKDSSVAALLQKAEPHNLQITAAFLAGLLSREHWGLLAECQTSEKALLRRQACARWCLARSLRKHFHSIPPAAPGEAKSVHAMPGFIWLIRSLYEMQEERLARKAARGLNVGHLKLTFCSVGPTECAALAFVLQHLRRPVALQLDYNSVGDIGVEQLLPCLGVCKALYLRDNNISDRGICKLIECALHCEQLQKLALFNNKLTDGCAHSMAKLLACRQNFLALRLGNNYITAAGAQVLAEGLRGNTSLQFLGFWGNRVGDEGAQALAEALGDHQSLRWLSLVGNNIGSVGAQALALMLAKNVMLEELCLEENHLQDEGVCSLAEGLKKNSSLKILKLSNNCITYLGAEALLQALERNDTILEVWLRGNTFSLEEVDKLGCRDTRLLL
COUP transcription factor 2, sequence (P24468 whole entry): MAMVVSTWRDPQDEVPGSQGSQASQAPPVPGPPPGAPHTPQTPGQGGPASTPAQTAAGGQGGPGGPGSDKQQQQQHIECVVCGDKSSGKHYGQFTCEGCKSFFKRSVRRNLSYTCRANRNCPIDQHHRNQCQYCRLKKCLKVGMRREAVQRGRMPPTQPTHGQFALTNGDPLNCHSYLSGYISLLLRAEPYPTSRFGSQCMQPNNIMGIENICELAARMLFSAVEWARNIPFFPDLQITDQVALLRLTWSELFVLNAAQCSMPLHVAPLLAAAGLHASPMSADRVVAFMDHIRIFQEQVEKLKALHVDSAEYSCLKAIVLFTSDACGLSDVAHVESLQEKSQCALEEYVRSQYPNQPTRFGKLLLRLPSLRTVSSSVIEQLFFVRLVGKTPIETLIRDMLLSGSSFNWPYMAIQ

As to `O=c1c(OC2OC(CO)C(O)C(O)C2OC2OC(CO)C(O)C(O)C2O)c(-c2ccc(O)cc2)oc2cc(O)cc(O)c12` (stereo unspecified), the figures for the IC50 in test [1], in [2] and in test [3] were 83.3 µM (inactive), 20.9 µM (inactive) and 38.8 µM (inactive), respectively.

As for `Cc1nnsc1NC(=O)OCc1ccc(C(C)(C)C)cc1`, the IC50 in [4] was 10.4 µM (inactive).

On to `Cc1ccc2nc(-c3ccc4c(c3)OCCO4)cn2c1`, for which the half-maximal activity concentration (AC50) in test [5] was 2.56 µM (active); in test [6] it was 0.527 µM (active); in [8], 2.18 µM (active); in [9] it was 2.21 µM (active); in test [10] it was 0.366 µM (active); in test [11], 1.27 µM (active). For the same compound, in test [7], the IC50 was > 80 µM (inactive).

With `Cc1ccc(NS(=O)(=O)c2cc(NC(=O)c3ccc4c(c3)NC(=O)CS4)ccc2Cl)c(C)c1`, the IC50 in test [12] is 48.8 µM (active); with HEK293 [13], > 20 µM (inactive); with HEK293 [14], 6.3 µM (active); in the test on HEK293 [16] it was 11.5 µM (active); in [17] it was 19.5 µM (active); in the test on HEK293 [19], 7.17 µM (inactive). The values for the EC50 (in test [15]; in the test on HEK293 [18]) were 14.3 µM (active) and 6.38 µM (active), respectively.

For `COc1ccccc1NC(=O)c1cn(C)c(=O)c2cc(OC)c(OC)cc12`, the IC50 in [20] was 48.1 µM (active); in test [21], 10.2 µM (active).

The AC50 is the concentration giving half of the maximal activity seen. Usually EC50 stands for the concentration that produces a half-maximal response.
